Assay results reported in BindingDB's records for patent US20250059204 (Aurigene Oncology, 2025).

Target: Histone acetyltransferase KAT6A (UniProt Q92794)
Test: KAT6A Biochemical Assay
Source text: TR-FRET is homogeneous proximity assay where Europium-labelled anti-acetyl lysine antibody binds to the acetylated substrate labelled with biotin which in turn binds to streptavidin labelled APC fluorescence acceptor. Europium can transfer energy to APC in the complex and the interaction of two dye-labelled binding partners is detected by the energy transfer between a donor and an acceptor dye, and the subsequent light emission by the acceptor dye. KAT6A transfer an acetyl group from acetyl CoA to lysine amino acids of histones/target proteins. Typically, 5 μL of human-KAT6A (MYST domain 507-778 aa) in assay buffer (100 mM Tris HCl (pH 7.8), 15 mM NaCl, 1 mM EDTA, 0.01% Tween-20, 0.02% BSA, 1 mM DTT) is added to 384-well plate containing 5 μL of selected test compound in final 1% DMSO, serially diluted in 1:3 in an 8-10-point titration. The selected compound of the present invention and enzyme are incubated for 30 min at room temperature. Next, 5 μL of substrate mix containing histone H4 peptide and acetyl-CoA in assay buffer is added to the plate. The final concentrations of H4 peptide and acetyl-CoA are 200 nM and 600 nM respectively. […] The plate is further incubated for 45 min at room temperature and is read in TR-FRET mode (Ex:340 nm; Em: 615 nm and 665 nm) on a plate reader.

Sequence of Histone acetyltransferase KAT6A (Q92794 whole entry): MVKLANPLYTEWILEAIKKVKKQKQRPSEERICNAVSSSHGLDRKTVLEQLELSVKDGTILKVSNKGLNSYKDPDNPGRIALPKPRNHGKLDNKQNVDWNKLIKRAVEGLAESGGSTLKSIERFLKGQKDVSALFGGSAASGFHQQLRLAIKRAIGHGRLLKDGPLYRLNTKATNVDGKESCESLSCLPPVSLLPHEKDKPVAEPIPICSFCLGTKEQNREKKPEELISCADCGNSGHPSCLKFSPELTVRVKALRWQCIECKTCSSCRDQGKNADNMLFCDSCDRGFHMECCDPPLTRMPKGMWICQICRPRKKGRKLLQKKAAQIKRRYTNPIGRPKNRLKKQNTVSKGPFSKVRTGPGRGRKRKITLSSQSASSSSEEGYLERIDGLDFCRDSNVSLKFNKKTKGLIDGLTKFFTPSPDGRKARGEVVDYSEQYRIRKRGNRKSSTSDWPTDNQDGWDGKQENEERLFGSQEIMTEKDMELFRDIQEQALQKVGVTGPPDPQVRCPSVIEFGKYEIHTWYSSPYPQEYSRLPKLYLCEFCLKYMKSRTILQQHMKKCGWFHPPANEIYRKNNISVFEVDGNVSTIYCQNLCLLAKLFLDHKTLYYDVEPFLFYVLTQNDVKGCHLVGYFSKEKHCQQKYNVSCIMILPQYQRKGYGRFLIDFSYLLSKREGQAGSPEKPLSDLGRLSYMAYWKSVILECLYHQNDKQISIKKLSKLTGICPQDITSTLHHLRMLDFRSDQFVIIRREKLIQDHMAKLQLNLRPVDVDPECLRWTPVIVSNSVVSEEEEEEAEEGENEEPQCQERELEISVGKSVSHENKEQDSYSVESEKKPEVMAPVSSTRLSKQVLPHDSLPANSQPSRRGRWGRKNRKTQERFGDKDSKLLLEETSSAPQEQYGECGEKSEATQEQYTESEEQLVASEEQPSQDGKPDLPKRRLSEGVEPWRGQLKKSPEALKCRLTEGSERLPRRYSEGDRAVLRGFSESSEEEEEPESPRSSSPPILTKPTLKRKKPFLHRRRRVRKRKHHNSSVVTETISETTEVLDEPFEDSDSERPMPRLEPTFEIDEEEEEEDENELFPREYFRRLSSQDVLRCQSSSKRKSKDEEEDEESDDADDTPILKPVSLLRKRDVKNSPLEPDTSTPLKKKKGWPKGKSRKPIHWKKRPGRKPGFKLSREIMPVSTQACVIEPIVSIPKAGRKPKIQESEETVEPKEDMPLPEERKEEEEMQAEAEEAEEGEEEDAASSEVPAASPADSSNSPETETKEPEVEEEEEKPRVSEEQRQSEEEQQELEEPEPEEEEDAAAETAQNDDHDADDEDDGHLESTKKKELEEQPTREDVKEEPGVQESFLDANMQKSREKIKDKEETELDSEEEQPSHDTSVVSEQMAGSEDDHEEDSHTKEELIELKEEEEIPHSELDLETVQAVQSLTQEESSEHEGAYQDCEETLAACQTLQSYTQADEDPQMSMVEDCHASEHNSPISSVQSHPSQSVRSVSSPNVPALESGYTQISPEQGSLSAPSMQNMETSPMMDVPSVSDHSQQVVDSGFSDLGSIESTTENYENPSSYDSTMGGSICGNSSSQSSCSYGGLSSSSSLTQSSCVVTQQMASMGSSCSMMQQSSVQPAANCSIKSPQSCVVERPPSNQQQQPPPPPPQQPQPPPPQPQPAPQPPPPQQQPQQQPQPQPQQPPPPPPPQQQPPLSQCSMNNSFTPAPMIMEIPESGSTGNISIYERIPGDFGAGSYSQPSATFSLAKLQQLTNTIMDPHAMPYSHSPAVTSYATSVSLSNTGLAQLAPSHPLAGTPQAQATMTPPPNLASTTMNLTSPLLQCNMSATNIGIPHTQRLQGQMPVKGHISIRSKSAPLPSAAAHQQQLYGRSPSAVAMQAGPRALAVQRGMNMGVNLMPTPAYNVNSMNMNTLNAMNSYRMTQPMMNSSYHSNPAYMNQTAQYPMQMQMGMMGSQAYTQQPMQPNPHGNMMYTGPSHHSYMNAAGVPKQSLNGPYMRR

Row | IC50 [nM] | Compound
1 | 156 | COc1cccc(OC)c1S(=O)(=O)Nc1noc2cc(-c3cscc3C)c3c(c12)OCC3 [US20250059204, Compound 14]
2 | 43 | COc1cccc(OC)c1S(=O)(=O)Nc1noc2cc(Cn3cccn3)c3c(c12)OC(C)(C)C3 [US20250059204, Compound 56]
